Data set [1] deals with EHDP-Induced Mineralization Block. Nature of the data set: Prevention of EHDP-induced mineralization block in rats (tibial epiphyseal plate width). The class given is in vivo, rat (Charles River CD male). As to conditions: 10 days; for Mean tibial epiphyseal plate width: with EHDP. How it is done: Charles River CD male rats are treated for 10 consecutive days. Rats are 21 days of age at the start of treatment. Ethane-1-hydroxy-1,1-diphosphonate (EHDP) is given subcutaneously on each treatment day at a dose of 3 mg/0.2 ml/rat in distilled water. Test compounds are administered orally on each treatment day in propylene glycol (0.2 ml/rat). Rats are autopsied on the day after the last treatment day and tibias are processed by a modified von Kossa procedure based upon silver impregnation of bone salts. Epiphyseal plate widths are measured with a micrometer ocular using standard microscopic magnification (35×). Activity is based upon dose-dependent narrowing of the widened epiphyseal plate induced by EHDP. Ten rats are used in each treatment group. Positive (EHDP alone) and negative (vehicles alone) control groups of ten rats each are included in each experiment.

Data set [2] can be described thus: Pharmacokinetics in dogs, plasma half-life after intravenous administration. As to conditions: dog, in vivo, 0.0003 mg/kg. How it is done:
The plasma level profiles of 1α,25-dihydroxy-24R-fluorocholecalciferol and 1α,25-dihydroxycholecalciferol are compared in the dog after a single intraveneous dose. Each compound is studied in four dogs with a two-week "washout" period between compounds. The compounds are administered intravenously as solutions (2.5 mg/ml) in propylene glycol at a dose level of 0.3 μg/kg. At selected time points 5 ml of heparinized blood are collected, placed in ice and centrifuged in the cold. Plasma is separated and frozen immediately.
Plasma concentrations are determined by procedures routinely employed for the measurements of circulating levels of 1α,25-dihydroxycholecalciferol.

The subject of data set [3] is vitamin D-deficient chicks. Nature of the data set: Anti-rachitogenic activity in chicks (tibia ash weight). The data set is classed as in vivo, chick (White Leghorn cockerels). As to conditions: for Mean tibia ash weight ± S.E.: 21 days oral dosing, 9-10 chicks per group, vehicle 120.9 ± 8.3. How it is done: One-day-old White Leghorn cockerels are placed on a vitamin D-deficient diet which contains 1% calcium and 0.7% phosphorous and are housed under ultraviolet-free lighting (General Electric F40G0 gold fluorescent lights). Compounds are dissolved in propylene glycol and administered orally in a volume of 0.2 ml for 21 consecutive days to chicks which are one to two days of age at the start of treatment. Controls are treated with vehicle alone. Compounds are prepared in amber flasks and the solutions are flushed with argon and refrigerated after each dosing period. Chicks are autopsied on the day after the last treatment day. Blood is collected for determination of serum calcium and phosphorus and tibia dry weight and ash weight are determined. Usually, ten chicks are used for each treatment group and for the control group. The results of the 1α,25-dihydroxy-24R-fluorocholecalciferol anti-rachitogenic activity assay are shown in Table I along with comparative data showing the anti-rachiotogenic activity of 24,24-difluoro 1α,25-dihydroxycholecalciferol.

The subject of data set [4] is intestinal calcium absorption. Nature of the data set: Intestinal calcium absorption in vitamin D-deficient chicks (serum 45Ca). The data set is classed as in vivo, chick (Leghorn cockerels). How it is done:
While Leghorn one-day-old cockerels are placed on a vitamin D-deficient diet and are housed under ultraviolet-free lighting for 21 days. Chicks are then used to determine the effects of test compounds on intestinal calcium absorption. A single oral dose of test compound dissolved in propylene glycol is administered. At various times after dosing, 2 uCi of ^45 Ca (chloride) is given orally, and serum radioactivity is measured 45 minutes after administration of the isotope. Ten chicks are used in each treatment and control group and vehicle-treated controls are included at each time period.

Where [5] appears, read: 2.5 picomoles/rat/day p.o., vehicles 447, EHDP alone 1502.
Where [6] appears, read: 7.5 picomoles/rat/day p.o., vehicles 416, EHDP alone 1390.
[7] abbreviates: 25 picomoles/rat/day p.o., vehicles 435, EHDP alone 1684.
[8] abbreviates: 75 picomoles/rat/day p.o., vehicles 448, EHDP alone 1332.
Setting [9] is: 250 picomoles/rat/day p.o., vehicles 428, EHDP alone 1385.

The values that follow come from patent US4634692A, “Synthesis of 1α,25-dihydroxy-24R-fluorocholecalciferol and 1α,25-dihydroxy-24S-fluorocholecalciferol” (Hoffmann-La Roche Inc., priority 1984, dated 1987).

Structures are written as SMILES. Several values for one entry are separate records, joined by “and”; a condition that tells them apart may be missing. Equal entries are not always repeated. Entries after “also recorded” stand apart in the source; their conditions may differ. Where two headings read alike, the source gives them in different places.

For orientation: half-life means the time in which the quantity being followed falls by half. For the molecule `C=C1/C(=C\C=C2/CCC[C@]3(C)[C@@H]([C@H](C)CCCC(C)(C)O)CC[C@@H]23)C[C@@H](O)C[C@@H]1O` [1α,25-dihydroxycholecalciferol], the “Mean tibial epiphyseal plate width” value amounted to 1365 Micra in data set [1] (setting [5]); 1240 Micra in data set [1] (setting [6]); 1103 Micra in data set [1] (setting [7]); 922 Micra in data set [1] (setting [8]); 839 Micra in data set [1] (setting [9]). In data set [2] (0.3 mcg/kg, i.v., dogs, read-out: Plasma half-life (converted)), the half-life was 3.6 h.
Regarding `C=C1/C(=C\C=C2/CCC[C@]3(C)[C@@H]([C@H](C)CCC(F)(F)C(C)(C)O)CC[C@@H]23)C[C@@H](O)C[C@@H]1O` [24,24-difluoro 1α,25-dihydroxycholecalciferol, reference compound], the results for the “Mean tibia ash weight ± S.E.” value in data set [3] (3 ng/chick/day), in data set [3] (10 ng/chick/day) and in data set [3] (30 ng/chick/day) were 192.2 ± 6.2 mg, 258.6 ± 10.0 mg and 229.8 ± 14.2 mg, respectively.
Regarding `CC(O)(P(=O)(O)O)P(=O)(O)O` [EHDP, Ethane-1-hydroxy-1,1-diphosphonate], in data set [1] (EHDP 3 mg/0.2 ml/rat s.c., control groups of the 2.5, 7.5, 25, 75, 250 pmol), the “Mean tibial epiphyseal plate width, EHDP alone (positive control)” value was 1502 Micra and 1390 Micra and 1684 Micra and 1332 Micra and 1385 Micra.
Regarding `C=C1/C(=C\C=C2/CCC[C@]3(C)[C@@H]([C@H](C)CC[C@@H](F)C(C)(C)O)CC[C@@H]23)C[C@@H](O)C[C@@H]1O` [[1α,3β,5Z,7E,24R]-24-fluoro-9,10-secocholesta-5,7,10(19)-trien-1,3,25-triol], the “Mean tibial epiphyseal plate width” value in data set [1] (setting [5]) is reported as 1302 Micra; in data set [1] (setting [6]) it was 1031 Micra; in data set [1] (setting [7]), 1040 Micra; in data set [1] (setting [8]), 864 Micra; in data set [1] (setting [9]), 783 Micra. Further, in data set [1] (oral, rats), the “Prevention of EHDP-induced mineralization block (in words)” value is “has shown activity in the test for the prevention of EHDP-Induced Mineralization Block in rats; also recorded: narrows the widening of the epiphyseal plate induced by EHDP”. In addition, the “Mean tibia ash weight ± S.E.” value in data set [3] (3 ng/chick/day) is 293.3 ± 4.8 mg; in data set [3] (10 ng/chick/day), 330.4 ± 7.7 mg; in data set [3] (30 ng/chick/day) it was 337.9 ± 10.6 mg. Moreover, in data set [3] (oral, 21 consecutive days), the “Anti-rachitogenic activity (in words)” value is reported as “has shown activity in the anti-rachitogenic test in chicks; also recorded: possesses potent anti-rachitogenic activity”. The “Serum 45Ca” value in data set [4] (24 hr after single oral dose, vehicle 408 ± 30, *** statistically significant) came out at 793 ± 73 CPM/0.2 ML; in data set [4] (48 hr after single oral dose, vehicle 439 ± 30, not statistically significant), 520 ± 38 CPM/0.2 ML; in data set [4] (72 hr after single oral dose, vehicle 398 ± 31, not statistically significant) it was 372 ± 39 CPM/0.2 ML. In addition, in data set [4] (single oral 100 nanogram dose), the “Duration of activity in stimulation of intestinal calcium absorption versus 1α,25-dihydroxycholecalciferol (in words)” value is given as “comparable to that of 1α,25-dihydroxycholecalciferol”. The molecule also showed a half-life in data set [2] of 14.4 h.
